From patent publication US11970489B1, “4-[(substituted 1H-benzimidazol-2-ylsulfanyl)methyl]-6-substituted-2H-chromen-2-ones as larvicidal agents” (KING FAISAL UNIVERSITY, priority 2023, dated 2024)
Where two headings read alike, the source gives them in different places.

Key:
Anopheles arabiensis = test: Larvicidal screening (WHO protocol), 3rd instar larvae; type: in vivo
Description: Anopheles arabiensis was used in the study according to the protocol described by WHO (1975) guidelines in an insectary simulating the temperature (27.5° C.), humidity (70%), and lighting (12/12) of a malaria-endemic environment. One mL of test compound (1 mg/mL) was added to 1 mL of acetone and followed by […] of distilled water to obtain a final concentration of 4 μg/mL. Thirty individuals of 3rd instar larvae were introduced into a container. Negative control was set up using the solvent (acetone) and distilled water, and a positive control included Temephos, which is an active emulsified organophosphate larvicidal used by malaria control programs. Larval mortality was examined for each container separately for 24 h and fed specially made cat food that contained less oil/fat content. The percentage of mortality was determined relative to the initial number of larvae exposed.
Differences in larval mortality between treatments were assessed with generalized linear models using a quasi-Poisson link function. Anopheles arabiensis mortality was the dependent variable, while fixed effects were test compounds and observation period (24 and 48 h). A p-value <0.05 was considered statistically significant. Throughout the text, the results are presented as the adjusted mean the standard error.

Row | SMILES | melting point | mortality at 4 µg/mL (Anopheles arabiensis; 24 h, read-out: Mortality 24 h) | mortality at 4 µg/mL (Anopheles arabiensis; 48 h, read-out: Mortality 48 h)
1 | CC(C)(C)c1ccc2oc(=O)cc(CSc3nc4ccccc4[nH]3)c2c1 | 189 to 190 °C | – | –
2 | Cc1ccc2oc(=O)cc(CSc3nc4ccccc4o3)c2c1 [Compound 3c, 4-[(1,3-Benzoxazol-2-ylsulfanyl)methyl]-6-methyl-2H-chromen-2-one] | – | 70.1 ± 2.29% | 75.8 ± 2.21%
3 | CC(C)(C)c1ccc2oc(=O)cc(CSc3nc4ccccc4s3)c2c1 [Compound 3i, 4-[(1,3-Benzothiazol-2-ylsulfanyl)methyl]-6 tert-butyl-2H-chromen-2-one] | – | 89.9 ± 2.44% | 94.7 ± 2.11%
4 | Cc1ccc2oc(=O)cc(CSc3nc4ccccc4[nH]3)c2c1 | 190 to 192 °C | – | –
5 | Cc1ccc2oc(=O)cc(CSc3nnc(C)s3)c2c1 [Compound 3e, 6-Methyl-4-{[(5-methyl-1,3,4-thiadiazol-2-yl)sulfanyl]methyl}-2H-chromen-2-one] | – | 77.2 ± 2.02% | 82.2 ± 1.93%
6 | COc1ccc2nc(SCc3cc(=O)oc4ccc(C)cc34)[nH]c2c1 | 176 to 178 °C | – | –
7 | COP(=S)(OC)Oc1ccc(Sc2ccc(OP(=S)(OC)OC)cc2)cc1 [Temephos, reference compound] | – | 98.9 ± 2.7% | 100 ± 2.71%
8 | Cc1nnc(SCc2cc(=O)oc3ccc(C(C)(C)C)cc23)s1 [Compound 3j, 4-{[(5-Methyl-1,3,4-thiadiazol-2-yl)sulfanyl]methyl}-6 tert-butyl-2H-chromen-2-one] | – | 94.7 ± 2.61% | 95.1 ± 2.09%
9 | CC(C)(C)c1ccc2oc(=O)cc(CSc3nc4ccccc4o3)c2c1 | 212 to 214 °C | – | –
10 | Cc1ccc2oc(=O)cc(CSc3nc4ccccc4s3)c2c1 | 192 to 194 °C | – | –
